For assay [1], the system named is U-87 MG. The assay is classed as functional, Homo sapiens, U-87MG ATCC. To be noted: dose 300 mg/kg; route po; time 35 day.
The subject of assay [2] is U-87 MG. The assay can be described thus: Antiproliferative activity against human U-87 MG cells harboring wildtype IDH1 assessed as inhibition of cell growth incubated for 72 hrs by CCK8 assay. The assay is classed as functional, cell-based, U-87MG ATCC.
Assay [3] deals with U-87MG ATCC. The assay is classed as functional, cell-based. The conditions noted are these: Homo sapiens, dose 0.5 µM, time 48.0 hrs.
In assay [4] the test system is U-87 MG. The assay is classed as functional, cell-based, U-87MG ATCC. The conditions noted are these: Homo sapiens, 48 h.
The test system of assay [5] is U-87MG ATCC. The assay can be described thus: Effect on intracellular NADP+ level in human U-87 MG cells harboring wildtype IDH1. The assay is classed as functional, cell-based.
Assay [6] deals with U-87 MG. Format: functional, cell-based, U-87MG ATCC. To be noted: Homo sapiens, 48 h. The source holds these as a separate data set.
Assay [7] has as its system U-87 MG. Format: functional, Homo sapiens, U-87MG ATCC. The conditions noted are these: time 48 hrs.
Assay [8] has as its system U-87 MG. The assay is classed as functional, cell-based, U-87MG ATCC. To be noted: Homo sapiens, 24 h.
Assay [9] relates to U-87 MG. The assay is classed as functional, organism-based. To be noted: Homo sapiens; U-87MG ATCC; dose 300.0 mg/kg, route po, time 35.0 day.
The test system of assay [10] is U-87 MG. The assay can be described thus: Antiproliferative activity against human U-87 MG cells harboring wildtype IDH1 assessed as inhibition of cell growth incubated for 24 hrs by CCK8 assay. Format: functional, cell-based, U-87MG ATCC. In general terms: Tetrazolium dyes change colour on reduction, which living cells bring about.
Assay [11] has as its system U-87 MG. Briefly: cells. To be noted: Homo sapiens, 48 h, read-out: Activity.
The test system of assay [12] is U-87 MG. Briefly: Synergistic antiproliferative activity against human U-87 MG cells harboring wildtype IDH1 assessed as combination index incubated for 48 hrs in presence of FK866 by CCK8 assay. The assay is classed as functional, U-87MG ATCC.
Assay [13] concerns U-87 MG. Briefly: Antiproliferative activity against human U-87 MG cells harboring wildtype IDH1 assessed as inhibition of cell growth incubated for 48 hrs by CCK8 assay. The assay is classed as functional, cell-based, U-87MG ATCC.
For assay [14], the system named is U-87 MG. Format: functional, Homo sapiens, U-87MG ATCC. To be noted: dose 300 mg/kg; route po; time 35 day. This is another data set of the same source.
In assay [15] the test system is U-87 MG. The assay can be described thus: Synergistic antiproliferative activity against human U-87 MG cells harboring wildtype IDH1 assessed as inhibition of cell growth incubated for 48 hrs in presence of FK866 by CCK8 assay. The assay is classed as functional, cell-based, U-87MG ATCC.
The test system of assay [16] is U-87 MG. Format: functional, cell-based, U-87MG ATCC. The conditions noted are these: Homo sapiens, 72 h.

Activity calls are given as the source filed them. No cut-off for these calls is given here.

The term IC50 denotes the concentration that gives 50% inhibition. `Cc1cc([C@H](C)Nc2nccc(N3C(=O)OC[C@@H]3[C@H](C)F)n2)ncc1-c1ccnc(C(F)(F)F)c1`: the MST in the assay on U-87 MG [1] came out at 26.5 days; in the assay on U-87 MG [14], 23.5 days. Besides, the IC50 in the assay with U-87 MG [2] was 3.54 µM; with U-87 MG [4], 0.45 µM; in the assay on U-87 MG [6] it was 0.44 µM; with U-87 MG [8] it was 1.04 µM; with U-87 MG [10] it was 20.1 µM; with U-87 MG [13], 7.57 µM. The IC50 in the assay on U-87 MG [15] was determined as 1.69 µM; in the assay on U-87 MG [16], 0.36 µM. Besides, the outcome with U-87MG ATCC [3] and in the assay on U-87MG ATCC [5] was inactive. The CI in the assay on U-87 MG [7] was 0.91; in the assay with U-87 MG [12] it was 0.83. Besides, in the assay on U-87 MG [9], the outcome was Active. Moreover, the viability at 1 µM with U-87 MG [11] came out at 34.7%.

Values taken from ChEMBL document CHEMBL5506022, “Discovery of Novel Dual Inhibitors Targeting Mutant IDH1 and NAMPT for the Treatment of Glioma with IDH1Mutation” (J Med Chem, 2024).
